Test results as given in patent US8461178B2, “Naphthyridine derivatives and the use thereof as kinase inhibitors” (Aeterna Zentaris GmbH, priority 2009, dated 2013).
Read-outs that look alike come from different tables or passages of the source.

What was measured:
Aurora-B = biological target: T1, Aurora-B (Homo sapiens, UniProt Q96GD4); test: Cell-free kinase assay (ALPHA technology), Aurora-B; type: biochemical
T1 construct: in some cases as full-length kinases, in some cases as truncated fragments; purchased Upstate/Millipore #14-835
Method: The kinase reaction was stopped by adding 10 μl of the ALPHA bead mix (10 μg/ml, #6760617/PerkinElmer), pre-incubated with anti-phospho PLK antibody (100 pM, #5070, Cell Signaling), in 25 mM Tris, 200 mM NaCl, 100 mM EDTA and 0.3% BSA, and left to stand overnight. The luminiscence was detected the next morning in a Envision instrument (Perkin Elmer). […] 0% controls contained no ATP whereas the 100% controls contained no test substance. The IC50 values were determined with GraphPadPrism.

Erk2 = biological target: T2, Erk2 (Homo sapiens, UniProt P28482); test: Cell-free kinase assay (ALPHA technology), Erk2; type: biochemical; details: for dual activity against Aurora-B and Erk2 (or cRaf-Mek-Erk cascade respectively): in words; for IC50: at 10 μM ATP
T2 construct: in some cases as full-length kinases, in some cases as truncated fragments
Method: (§1) The controls were determined 16 fold. 0% controls contained no ATP whereas the 100% controls contained no test substance. The IC50 values were determined with GraphPadPrism.

cRaf-Mek1-Erk2 = cRaf-Mek1-Erk2 (Homo sapiens, UniProt P04049+P28482+Q02750); details: read-out: IC50 cRaf-Mek-Erk; at 10 μM ATP
Method: The inhibitory effect of the inventive compounds was tested on various human serine/threonine kinases and tyrosine kinases in enzymatic assays. Recombinant human kinases, for example Aurora-B, cRaf-Mek1-Erk2, Erk2, Pim-1, HIPK1, KDR, TrkA, Yes, c-Abl and others were used, in some cases as full-length kinases, in some cases as truncated fragments—but at least consisting of the functional kinase domains. The commercial kinase proteins (Proqinase, Millipore) were used as recombinant fusion proteins with GST (glutathione S-transferase) tag or His tag. Depending on the substrate type, the different kinase reactions were quantified by suitable ALPHA™ beads (PerkinElmer).
The calculation of % inhibition values per substance concentration was done by means of the following formula from the raw data determined in the Envision reader:
as §1

[1] = at 10 μM ATP, read-out: IC50 Aurora-B
[2] = read-out: IC50 values against Aurora-B

T2 sequence (P28482 whole entry, the tested form may be a part): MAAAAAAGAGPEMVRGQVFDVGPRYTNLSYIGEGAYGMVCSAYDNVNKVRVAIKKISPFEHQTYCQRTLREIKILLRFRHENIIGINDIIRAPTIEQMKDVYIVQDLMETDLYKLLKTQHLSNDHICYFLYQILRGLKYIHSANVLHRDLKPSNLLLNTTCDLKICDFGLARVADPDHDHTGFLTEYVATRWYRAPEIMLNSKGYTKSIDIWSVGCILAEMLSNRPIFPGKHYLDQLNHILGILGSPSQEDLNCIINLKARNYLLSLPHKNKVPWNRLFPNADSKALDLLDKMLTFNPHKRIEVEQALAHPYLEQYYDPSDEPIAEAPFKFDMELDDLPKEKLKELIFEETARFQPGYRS
T1 sequence (Q96GD4 whole entry, the tested form may be a part): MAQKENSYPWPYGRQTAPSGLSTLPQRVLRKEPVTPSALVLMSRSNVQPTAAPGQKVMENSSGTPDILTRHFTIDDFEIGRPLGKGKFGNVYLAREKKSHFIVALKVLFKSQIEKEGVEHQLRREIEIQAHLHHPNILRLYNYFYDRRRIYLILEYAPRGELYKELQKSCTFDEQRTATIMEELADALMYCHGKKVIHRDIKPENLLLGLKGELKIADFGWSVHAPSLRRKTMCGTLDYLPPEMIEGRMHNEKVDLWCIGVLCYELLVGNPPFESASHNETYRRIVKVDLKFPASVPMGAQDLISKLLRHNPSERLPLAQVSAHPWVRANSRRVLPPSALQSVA
Chain of cRaf-Mek1-Erk2 (P04049 whole entry, the tested form may be a part): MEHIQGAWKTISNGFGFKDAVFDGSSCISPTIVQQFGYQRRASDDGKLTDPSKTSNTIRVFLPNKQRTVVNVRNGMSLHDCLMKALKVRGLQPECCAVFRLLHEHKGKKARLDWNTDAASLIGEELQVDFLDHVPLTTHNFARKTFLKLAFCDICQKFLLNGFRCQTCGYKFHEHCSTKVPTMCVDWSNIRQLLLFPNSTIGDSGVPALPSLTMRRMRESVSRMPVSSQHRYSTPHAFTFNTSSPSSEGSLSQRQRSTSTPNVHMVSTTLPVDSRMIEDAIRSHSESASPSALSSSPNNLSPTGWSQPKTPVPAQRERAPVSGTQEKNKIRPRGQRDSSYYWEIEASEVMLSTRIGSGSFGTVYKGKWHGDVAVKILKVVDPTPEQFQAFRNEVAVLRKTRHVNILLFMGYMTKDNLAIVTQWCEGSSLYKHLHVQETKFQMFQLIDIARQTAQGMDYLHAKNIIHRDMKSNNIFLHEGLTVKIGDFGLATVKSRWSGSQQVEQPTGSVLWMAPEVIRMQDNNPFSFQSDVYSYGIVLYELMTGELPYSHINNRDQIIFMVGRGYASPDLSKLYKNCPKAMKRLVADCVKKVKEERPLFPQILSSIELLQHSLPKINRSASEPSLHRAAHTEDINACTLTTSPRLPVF
Chain of cRaf-Mek1-Erk2 (Q02750 whole entry, the tested form may be a part): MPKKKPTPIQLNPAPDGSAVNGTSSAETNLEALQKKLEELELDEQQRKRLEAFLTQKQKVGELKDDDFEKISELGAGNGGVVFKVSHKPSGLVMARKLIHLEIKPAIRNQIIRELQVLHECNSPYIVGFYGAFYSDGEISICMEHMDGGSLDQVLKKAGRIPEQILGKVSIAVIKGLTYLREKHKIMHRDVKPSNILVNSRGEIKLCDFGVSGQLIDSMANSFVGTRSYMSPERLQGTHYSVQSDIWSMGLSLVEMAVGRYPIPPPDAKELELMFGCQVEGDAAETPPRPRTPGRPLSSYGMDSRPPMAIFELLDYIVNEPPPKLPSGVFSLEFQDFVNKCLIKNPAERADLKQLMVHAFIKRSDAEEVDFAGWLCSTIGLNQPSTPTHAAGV
Chain of cRaf-Mek1-Erk2 (P28482 2-360): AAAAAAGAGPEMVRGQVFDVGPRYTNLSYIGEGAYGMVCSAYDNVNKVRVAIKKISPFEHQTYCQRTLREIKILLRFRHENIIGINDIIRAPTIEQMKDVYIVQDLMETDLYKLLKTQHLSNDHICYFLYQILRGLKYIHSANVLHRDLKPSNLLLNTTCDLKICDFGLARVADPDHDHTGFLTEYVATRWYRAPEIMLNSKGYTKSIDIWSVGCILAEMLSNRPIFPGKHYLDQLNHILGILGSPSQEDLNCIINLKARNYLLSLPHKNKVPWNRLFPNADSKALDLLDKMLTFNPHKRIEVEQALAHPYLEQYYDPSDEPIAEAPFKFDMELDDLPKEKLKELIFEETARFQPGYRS

| IC50 (Aurora-B; [1]) | dual activity against Aurora-B and Erk2 (or cRaf-Mek-Erk cascade respectively) (Erk2) | melting point | IC50 (cRaf-Mek1-Erk2) | IC50 (Erk2) | IC50 (Aurora-B; [2]) | SMILES |
| --- | --- | --- | --- | --- | --- | --- |
| 2.23 µM | dual activity | 264 to 265 °C |  |  |  | CCNC(=O)Nc1ccc2ncc(-c3ccc(OC)cc3)cc2n1 [Compound 1, 1-Ethyl-3-[7-(4-methoxy-phenyl)-[1,5]naphthyridin-2-yl]urea] |
| 0.624 µM | dual activity | 218 to 219 °C |  |  |  | CCNC(=O)Nc1ccc2ncc(-c3ccc(OC)c(OC)c3)cc2n1 [Compound 2, 1-[7-(3,4-Dimethoxy-phenyl)-[1,5]naphthyridin-2-yl]-3-ethyl-urea] |
| 0.805 µM | dual activity | 279 to 280 °C | 1.12 µM | 1.72 µM |  | COc1ccc(-c2cnc3ccc(NC(=O)NC(C)(C)C)nc3c2)cc1OC [Compound 3, 1-tert-Butyl-3-[7-(3,4-dimethoxy-phenyl)-[1,5]naphthyridin-2-yl]-urea] |
| 0.227 µM | dual activity | 286 to 287 °C |  |  |  | COc1cc(-c2cnc3ccc(NC(=O)NC(C)(C)C)nc3c2)ccc1O [Compound 4, 1-tert-Butyl-3-[7-(4-hydroxy-3-methoxy-phenyl)-[1,5]naphthyridin-2-yl]-urea] |
| 0.171 µM | dual activity | 237 to 238 °C | 0.008 µM | 0.733 µM |  | Cn1cc(-c2cnc3ccc(NC(=O)NCCc4ccccc4)nc3c2)cn1 [Compound 5, 1-[7-(1-Methyl-1H-pyrazol-4-yl)-[1,5]naphthyridin-2-yl]-3-phenethyl-urea] |
|  |  | 237 to 238 °C |  |  |  | CCNC(=S)Nc1ccc2ncc(Nc3cc(OC)c(OC)c(OC)c3)cc2n1 [Compound 6, 1-Ethyl-3-[7-(3,4,5-trimethoxy-phenylamino)-[1,5]naphthyridin-2-yl]-thiourea] |
| 0.136 µM |  | 215 to 216 °C | ~100 µM | > 100 µM |  | CCNC(=O)Nc1ccnc2cc(-c3ccc(OC)c(OC)c3)cnc12 [Compound 7, 1-[7-(3,4-Dimethoxy-phenyl)-[1,5]naphthyridin-4-yl]-3-ethyl-urea] |
| 0.714 µM |  | 215 to 216 °C | ~100 µM | > 100 µM |  | COc1ccc(-c2cnc3c(NC(=O)NC(C)(C)C)ccnc3c2)cc1OC [Compound 8, 1-tert-Butyl-3-[7-(3,4-dimethoxy-phenyl)-[1,5]naphthyridin-4-yl]-urea] |
| 0.37 µM |  | 202 to 203 °C | > 31.6 µM | ~100 µM |  | CCNC(=O)Nc1ccnc2cc(-c3ccc(O)c(OC)c3)cnc12 [Compound 9, 1-Ethyl-3-[7-(4-hydroxy-3-methoxy-phenyl)-[1,5]naphthyridin-4-yl]-urea] |
| 0.038 µM |  | 215 to 216 °C | > 31.6 µM | > 100 µM | < 0.1 µM | CCNC(=O)Nc1ccnc2cc(-c3cnn(C)c3)cnc12 [Compound 10, 1-Ethyl-3-[7-(1-methyl-1H-pyrazol-4-yl)-[1,5]naphthyridin-4-yl]-urea] |
| 0.112 µM |  | 215 to 216 °C | 12.6 µM | > 31.6 µM |  | Cn1cc(-c2cnc3c(NC(=O)NC(C)(C)C)ccnc3c2)cn1 [Compound 11, 1-tert-Butyl-3-[7-(1-methyl-1H-pyrazol-4-yl)-[1,5]naphthyridin-4-yl]-urea] |
| 1.58 µM |  | 158 to 159 °C | > 31.6 µM | > 100 µM |  | COc1cc(-c2cnc3c(NC(=O)NC(C)(C)C)ccnc3c2)ccc1O [Compound 12, 1-tert-Butyl-3-[7-(4-hydroxy-3-methoxy-phenyl)-[1,5]naphthyridin-4-yl]-urea] |
| 0.5 µM |  | > 300 °C | 11 µM | > 100 µM |  | CC(C)(C)NC(=O)Nc1ccnc2cc(-c3cc(Cl)c(O)c(Cl)c3)cnc12 [Compound 13, 1-tert-Butyl-3-[7-(3,5-dichloro-4-hydroxy-phenyl)-[1,5]naphthyridin-4-yl]-urea] |
| 0.108 µM |  | 235 to 236 °C | 18.1 µM | > 100 µM |  | COc1cc(-c2cnc3c(NC(=O)NC4CC4)ccnc3c2)ccc1O [Compound 14, 1-Cyclopropyl-3-[7-(4-hydroxy-3-methoxy-phenyl)-[1,5]naphthyridin-4-yl]-urea] |
| 0.227 µM |  | > 300 °C | 7.85 µM | > 31.6 µM |  | CCNC(=O)Nc1ccnc2cc(-c3cc(Cl)c(O)c(Cl)c3)cnc12 [Compound 15, 1-[7-(3,5-Dichloro-4-hydroxy-phenyl)-[1,5]naphthyridin-4-yl]-3-ethyl-urea] |
| 3.85 µM |  | 213 to 214 °C | > 31.6 µM | > 31.6 µM |  | CCNC(=O)Nc1ccnc2cc(-c3cc(C)c(O)c(C)c3)cnc12 [Compound 16, 1-Ethyl-3-[7-(4-hydroxy-3,5-dimethyl-phenyl)-[1,5]naphthyridin-4-yl]-urea] |
| 0.048 µM |  | 215 to 216 °C | 2.17 µM | > 100 µM | < 0.1 µM | Cn1cc(-c2cnc3c(NC(=O)NC4CCC4)ccnc3c2)cn1 [Compound 17, 1-Cyclobutyl-3-[7-(1-methyl-1H-pyrazol-4-yl)-[1,5]naphthyridin-4-yl]-urea] |
| 0.013 µM |  | 223 to 224 °C | 7.45 µM | > 100 µM | < 0.1 µM | Cn1cc(-c2cnc3c(NC(=O)NC4CC4)ccnc3c2)cn1 [Compound 18, 1-Cyclopropyl-3-[7-(1-methyl-1H-pyrazol-4-yl)-[1,5]naphthyridin-4-yl]-urea] |
| 0.026 µM |  | 216 to 217 °C | 9.74 µM | > 100 µM | < 0.1 µM | CCCNC(=O)Nc1ccnc2cc(-c3cnn(C)c3)cnc12 [Compound 19, 1-[7-(1-Methyl-1H-pyrazol-4-yl)-[1,5]naphthyridin-4-yl]-3-propyl-urea] |
| 0.26 µM | dual activity |  | 0.096 µM | 0.429 µM |  | Cn1cc(-c2cnc3ccc(NC(=O)NC(C)(C)C)nc3c2)cn1 [Compound 26, 1-tert-Butyl-3-[7-(1-methyl-1H-pyrazol-4-yl)-[1,5]naphthyridin-2-yl]-urea] |
| 1.14 µM | dual activity |  | 0.157 µM | 0.191 µM |  | Cn1cc(-c2cnc3ccc(NC(=O)Nc4ccccc4)nc3c2)cn1 [Compound 27, 1-[7-(1-Methyl-1H-pyrazol-4-yl)-[1,5]naphthyridin-2-yl]-3-phenyl-urea] |
| 0.579 µM | dual activity | 257 to 258 °C |  |  |  | Cn1cc(-c2cnc3ccc(NC(=O)NCc4ccccc4)nc3c2)cn1 [Compound 28, 1-Benzyl-3-[7-(1-methyl-1H-pyrazol-4-yl)-[1,5]naphthyridin-2-yl]-urea] |
| 0.137 µM |  |  | 2.17 µM | > 100 µM |  | CC(C)NC(=O)Nc1ccnc2cc(-c3cnn(C)c3)cnc12 [Compound 30, 1-Isopropyl-3-[7-(1-methyl-1H-pyrazol-4-yl)-[1,5]naphthyridin-4-yl]-urea] |
